Test results reported in patent publication US11845724B2, “USP30 inhibitors and uses thereof” (Vincere Biosciences, Inc., priority 2019, dated 2023).
“And” between values parts separate entries of the source, which are not always exact repeats. Equal entries are not always repeated. Where two headings read alike, the source gives them in different places.

Assays:
[1] = biological target: T1, USP30 (Homo sapiens (Human), UniProt Q70CQ3); assay: Dundee MALDI-TOF mass spectrometry assay (IC50); format: biochemical; conditions: USP30 25 ng/μl, K48-linked diubiquitin 5.6 μM
Summary of the method: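 USP30 (25 ng/μl) preincubated with compound 5 min at RT in Tris/BSA/DTT buffer, then K48-linked diubiquitin (5.6 μM) added for 45 min at RT. Stopped with 2% TFA; cleavage quantified by MALDI-TOF mass spectrometry to give IC50.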

[2] = tested on: differentiated RenCell VM; assay: In-cell Tom20 loss assay; format: cell-based; conditions: 20 h after compound addition
Experimental: To evaluate Tom20 loss following treatment with compounds and/or antimycin/oligomycin, a96-well plate assay was performed on differentiated RenCell VM. These were seeded into laminin-coated 96-well plates at 5000 cells/well in normal growth medium (ReNcell NSC maintenance medium+20 ng/ml FDF-2 and 20 ng/ml EGF). After 3 days, growth medium was replaced with differentiation medium (ReNCell NSC medium+0.1 mM dibutyryl cAMP and 2 ng/ml GDNF). On days 1 and 4 following addition of differentiation medium, the media was removed and replaced with fresh differentiation medium. On the 7th day compounds or DMSO were added, and 1 hour later, some wells also received additions of oligomycin (1 uM and antimycin (1 uM). 20 h after compound addition, cells were fixed by adding formaldehyde to a final concentration of […], incubated 20 minutes at room temperature, then washed with PBS. Blocking buffer (3% bovine serum albumin, 2% fetal bovine serum, 0.2% Triton X100 in PBS) was added to all wells for two hours, then removed and replaced with blocking buffer containing antibody against Tom20 overnight. After washing with PBS, secondary antibody (Donkey anti-mouse conjugated to Cy3) was added along with DAPI to mark nuclei, and incubated two hours. After again washing with PBS, cells were imaged using GE INCell 6000 at 40× and quantified using HCA-based quantification algorithm of fluorescence density×area normalized to the number of nuclei.

[3] = biological target: recombinant USP30 (amino acids 57-517 of the human sequence) (Homo sapiens (Human), UniProt Q70CQ3); assay: In vitro USP30 biochemical assay (Ubiquitin-Rhodamine)
[4] = biological target: T1, USP30; assay: Dundee MALDI-TOF mass spectrometry assay (% DUB activity remaining at 1 μM); format: biochemical; conditions: % DUB activity remaining at compound concentration of 1 μM; avg; read-out: Dundee % Activity at 1 μM (avg in vitro MS assay)
Experimental: Compounds were tested in a MALDI-TOF assay based on the paper by Ritorto et al. (Ritorto et al. Screening of DUB activity and specificity by MALDI-TOF mass spectrometry. Nat. Commun. 5:4763).
USP30 (25 ng/μl) tested against K48-linked diubiquitin (5.6 μM). USP30 was diluted in a buffer containing 40 mM Tris, 0.01% BSA, 1 mM DTT and K48 in 40 mM Tris, 0.01% BSA.
The compounds were pre-incubated with the USP30 for 5 mins at room temp before the K48 dimer addition. The assay mixture was then incubated for 45 mins at room temp. The assay was stopped by the addition of TFA to a final concentration of 2% (v/v).
Acidified samples of the DUB assays were mixed with 0.5 mM 15N-ubiquitin and then with one part of 2% (v/v) TFA and one part of 2,5 DHAP matrix solution (7.6 mg of 2,5 DHAP in […] ethanol and […] of an aqueous 12 mg ml 1 diammonium hydrogen citrate). Then 250 nl of these solutions were spotted onto an MTP AnchorChip 1,536 TF and this is analysed on the Bruker rapifleX MALDI-TOF.
Table 22 presents the Dundee MALDI-TOF values expressed as % DUB activity remaining at a compound concentration of 1 μM.

[5] = avg, read-out: Dundee IC50 μM (avg in vitro MS assay)
[6] = USP30 IC50 μM (avg), Ubiquitin-Rhodamine substrate 25 nM, 1.5 nM recombinant USP30
[7] = read-out: USP30 IC50 μM (avg), Ubiquitin-Rhodamine substrate 25 nM, 1.5 nM recombinant USP30
[8] = Dundee IC50 μM (avg in vitro MS assay)

Sequence of recombinant USP30 (amino acids 57-517 of the human sequence) (Q70CQ3 57-517): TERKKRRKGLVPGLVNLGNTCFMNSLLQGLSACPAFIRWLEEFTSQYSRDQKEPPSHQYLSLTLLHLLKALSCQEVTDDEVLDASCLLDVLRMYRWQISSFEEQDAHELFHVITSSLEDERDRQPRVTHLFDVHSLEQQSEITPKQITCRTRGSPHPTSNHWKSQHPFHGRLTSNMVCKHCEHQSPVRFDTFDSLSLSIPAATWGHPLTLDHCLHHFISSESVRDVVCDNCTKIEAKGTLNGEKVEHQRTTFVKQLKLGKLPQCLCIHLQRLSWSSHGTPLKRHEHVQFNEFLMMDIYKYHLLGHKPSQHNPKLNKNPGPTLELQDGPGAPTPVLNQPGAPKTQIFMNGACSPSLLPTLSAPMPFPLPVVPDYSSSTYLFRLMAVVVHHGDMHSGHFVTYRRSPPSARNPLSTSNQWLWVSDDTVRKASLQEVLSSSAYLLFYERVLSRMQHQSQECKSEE
T1 sequence (Q70CQ3 whole entry): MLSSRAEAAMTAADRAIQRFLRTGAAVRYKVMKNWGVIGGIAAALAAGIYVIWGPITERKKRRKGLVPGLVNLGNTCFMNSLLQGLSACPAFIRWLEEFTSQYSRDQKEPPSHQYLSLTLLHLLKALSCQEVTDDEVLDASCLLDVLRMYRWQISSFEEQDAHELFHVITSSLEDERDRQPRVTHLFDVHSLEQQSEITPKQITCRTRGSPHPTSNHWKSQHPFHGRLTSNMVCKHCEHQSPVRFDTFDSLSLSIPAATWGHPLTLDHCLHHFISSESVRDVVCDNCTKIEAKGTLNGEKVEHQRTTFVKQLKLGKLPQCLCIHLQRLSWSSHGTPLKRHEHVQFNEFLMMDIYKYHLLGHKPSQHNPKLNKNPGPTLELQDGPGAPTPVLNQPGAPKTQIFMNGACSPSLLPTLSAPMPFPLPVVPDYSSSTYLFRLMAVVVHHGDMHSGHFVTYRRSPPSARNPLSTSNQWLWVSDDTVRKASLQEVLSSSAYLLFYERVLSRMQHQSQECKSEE

SMILES	IC50 [1, 5]	IC50 [2] [nM]	IC50 [3, 6]	IC50 [3, 7] [µM]	activity at 1 µM [4] [%]	IC50 [1, 8] [µM]
CC(C)(C)NC(c1ccc(NC(=O)[C@H](Cc2ccccc2)NC(=O)c2ccc(F)cc2)cc1)C(F)(F)F (stereo partly drawn) [Compound I-18, N-((2S)-1-(4-(1-(tert-butylamino)-2,2,2-trifluoroethyl)phenylamino)-1-oxo-3-phenylpropan-2-yl)-4-fluorobenzamide]				> 10	50 to 75	> 10
CC(C)(C)NS(=O)(=O)c1ccc(NC(=O)C2(NC(=O)c3ccc(F)cc3)Cc3ccccc3C2)cc1 [Compound I-19, N-(4-(N-tert-butylsulfamoyl)phenyl)-2-(4-fluorobenzamido)-2,3-dihydro-1H-indene-2-carboxamide]	0.05 to 1 µM		0.05 to 1 µM		25 to 50	
CC(C)(C)NS(=O)(=O)c1ccc(NC(=O)C2Cc3ccccc3CN2C(=O)c2ccc(F)cc2)cc1 (stereo not shown) [Compound I-22, N-(4-(N-tert-Butylsulfamoyl)phenyl)-2-(4-fluorobenzoyl)-1,2,3,4-tetrahydroisoquinoline-3-carboxamide]		> 10000	1 to 10 µM		0 to 25	0.05 to 1
CN(C(=O)c1ccc(F)cc1)[C@@H](Cc1ccccc1)C(=O)Nc1ccc(S(=O)(=O)NC(C)(C)C)cc1 [Compound I-35, (S)-N-(1-(4-(N-tert-Butylsulfamoyl)phenylamino)-1-oxo-3-phenylpropan-2-yl)-4-fluoro-N-methylbenzamide]	0.05 to 1 µM		0.05 to 1 µM and 1 to 10 µM		0 to 25	
CC(C)(C)NS(=O)(=O)c1ccc(NC[C@H](O)[C@H](Cc2ccccc2)NC(=O)c2ccc(F)cc2)cc1 [Compound I-41, N-((2S,3S)-4-(4-(N-tert-butylsulfamoyl)phenylamino)-3-hydroxy-1-phenylbutan-2-yl)-4-fluorobenzamide]	1 to 10 µM		1 to 10 µM		25 to 50	
CC(C)(C)NS(=O)(=O)c1ccc(NC(=O)C2Cc3cnccc3CN2C(=O)c2ccc(F)cc2)cc1 (stereo not shown) [Compound I-50, N-(4-(N-tert-butylsulfamoyl)phenyl)-2-(4-fluorobenzoyl)-1,2,3,4-tetrahydro-2,6-naphthyridine-3-carboxamide]	1 to 10 µM		1 to 10 µM		50 to 75	
CCNS(=O)(=O)c1ccc(NC(=O)[C@H](Cc2ccccc2)N(C)C(=O)c2ccc(F)cc2)cc1 [Compound I-51, (S)-N-(1-(4-(N-ethylsulfamoyl)phenylamino)-1-oxo-3-phenylpropan-2-yl)-4-fluoro-N-methylbenzamide]	1 to 10 µM		1 to 10 µM		> 75	
Cc1cc(S(=O)(=O)NC(C)(C)C)ccc1NC(=O)[C@H](Cc1ccccc1)NC(=O)c1ccc(F)cc1 [Compound I-93, (S)-N-(1-(4-(N-tert-butylsulfamoyl)-2-methylphenylamino)-1-oxo-3-phenylpropan-2-yl)-4-fluorobenzamide]	0.05 to 1 µM	500 to 1000		< 0.05		
O=C(N[C@@H](Cc1ccccc1)C(=O)Nc1cccc2c(S(=O)(=O)NC3COC3)cccc12)C1CCCCC1 [Compound I-130, (S)-N-(1-(5-(N-oxetan-3-ylsulfamoyl)naphthalen-1-ylamino)-1-oxo-3-phenylpropan-2-yl)cyclohexanecarboxamide]	0.05 to 1 µM	> 10000	0.05 to 1 µM			

Second part, led by results:

IC50 [1, 5]	IC50 [2] [nM]	IC50 [3, 6]	IC50 [3, 7] [µM]	activity at 1 µM [4] [%]	SMILES	IC50 [1, 8] [µM]
< 0.05 µM and 0.05 to 1 µM	≤ 500	0.05 to 1 µM	0.05 to 1		O=C(N[C@@H](Cc1ccccc1)C(=O)Nc1ccc(S(=O)(=O)NC23CC(C2)C3)cc1)c1ccc(F)cc1 [Compound I-11, (S)-N-(1-(4-(N-Bicyclo[1.1.1]pentan-1-ylsulfamoyl)phenylamino)-1-oxo-3-phenylpropan-2-yl)-4-fluorobenzamide]	
< 0.05 µM		0.05 to 1 µM		0 to 25	C[C@@H](NS(=O)(=O)c1ccc(NC(=O)[C@H](Cc2ccccc2)NC(=O)c2ccc(F)cc2)cc1)C(F)(F)F [Compound I-26, 4-fluoro-N-((S)-1-oxo-3-phenyl-1-(4-(N-((R)-1,1,1-trifluoropropan-2-yl)sulfamoyl)phenylamino)propan-2-yl)benzamide]	
< 0.05 µM	≤ 500		< 0.05		O=C(N[C@@H](Cc1ccccc1)C(=O)Nc1ccc(S(=O)(=O)NC2CCOCC2)cc1)c1ccc(F)cc1 [Compound I-34, (S)-4-fluoro-N-(1-oxo-3-phenyl-1-(4-(N-(tetrahydro-2H-pyran-4-yl)sulfamoyl)phenylamino)propan-2-yl)benzamide]	
< 0.05 µM		0.05 to 1 µM		0 to 25	O=C(N[C@@H](Cc1ccccc1)C(=O)Nc1ccc(S(=O)(=O)NC2COC2)cc1)c1ccc(F)cc1 [Compound I-64, (S)-4-fluoro-N-(1-(4-(N-oxetan-3-ylsulfamoyl)phenylamino)-1-oxo-3-phenylpropan-2-yl)benzamide]	
0.05 to 1 µM		0.05 to 1 µM		0 to 25	CN1CC(NS(=O)(=O)c2ccc(NC(=O)[C@H](Cc3ccccc3)NC(=O)c3ccc(F)cc3)cc2)C1 [Compound I-65, (S)-4-fluoro-N-(1-(4-(N-(1-methylazetidin-3-yl)sulfamoyl)phenylamino)-1-oxo-3-phenylpropan-2-yl)benzamide]	
0.05 to 1 µM	1000 to 10000	0.05 to 1 µM			O=C(N[C@@H](Cc1ccccc1)C(=O)Nc1ccc(S(=O)(=O)NC2CCCC2)cc1)c1cccnc1 [Compound I-80, (S)-N-(1-(4-(N-cyclopentylsulfamoyl)phenylamino)-1-oxo-3-phenylpropan-2-yl)nicotinamide]	
< 0.05 µM	≤ 500	0.05 to 1 µM			O=C(N[C@@H](Cc1ccccc1)C(=O)Nc1ccc(S(=O)(=O)NC23CC(C2)C3)nc1)c1ccc(F)cc1 [Compound I-104, (S)-N-(1-(6-(N-bicyclo[1.1.1]pentan-1-ylsulfamoyl)pyridin-3-ylamino)-1-oxo-3-phenylpropan-2-yl)-4-fluorobenzamide]	
< 0.05 µM	500 to 1000		< 0.05		O=C(N[C@@H](Cc1ccccc1)C(=O)Nc1ccc(S(=O)(=O)NC2CCOCC2)nc1)c1ccc(F)cc1 [Compound I-107, (S)-4-fluoro-N-(1-oxo-3-phenyl-1-(6-(N-(tetrahydro-2H-pyran-4-yl)sulfamoyl)pyridin-3-ylamino)propan-2-yl)benzamide]	
< 0.05 µM	≤ 500		< 0.05		CC(C)(CO)NS(=O)(=O)c1ccc(NC(=O)[C@H](Cc2ccccc2)NC(=O)c2ccc(F)cc2)cc1 [Compound I-137, (S)-4-fluoro-N-(1-(4-(N-(1-hydroxy-2-methylpropan-2-yl)sulfamoyl)phenylamino)-1-oxo-3-phenylpropan-2-yl)benzamide]	
	≤ 500		< 0.05		O=C(N[C@@H](Cc1ccccc1)C(=O)Nc1ccc(S(=O)(=O)N[C@@H]2CCOC2)cc1)c1ccc(F)cc1 [Compound I-175, 4-fluoro-N-((S)-1-oxo-3-phenyl-1-(4-(N-((R)-tetrahydrofuran-3-yl)sulfamoyl)phenylamino)propan-2-yl)benzamide]	
